ChEMBL document CHEMBL2074210, “A novel human organic anion transporting polypeptide localized to the basolateral hepatocyte membrane” (Am J Physiol Gastrointest Liver Physiol, 2000)

Assays:
Type in all cases: functional, cell-based
[1] = target: T1, OATP-C (OATP1B1, SLCO1B1) (Homo sapiens, UniProt Q9Y6L6); experiment: TP_TRANSPORTER: inhibition of E217betaG uptake (DIDS: 50 uM, E217betaG: 1 uM) in OATP-C-expressing HEK293 cells; set-up: scale not given: the % may be the effect or the level left; conditions: probe E217betaG (estradiol 17beta-glucuronide), read-out: Activity
T1 sequence (Q9Y6L6 whole entry): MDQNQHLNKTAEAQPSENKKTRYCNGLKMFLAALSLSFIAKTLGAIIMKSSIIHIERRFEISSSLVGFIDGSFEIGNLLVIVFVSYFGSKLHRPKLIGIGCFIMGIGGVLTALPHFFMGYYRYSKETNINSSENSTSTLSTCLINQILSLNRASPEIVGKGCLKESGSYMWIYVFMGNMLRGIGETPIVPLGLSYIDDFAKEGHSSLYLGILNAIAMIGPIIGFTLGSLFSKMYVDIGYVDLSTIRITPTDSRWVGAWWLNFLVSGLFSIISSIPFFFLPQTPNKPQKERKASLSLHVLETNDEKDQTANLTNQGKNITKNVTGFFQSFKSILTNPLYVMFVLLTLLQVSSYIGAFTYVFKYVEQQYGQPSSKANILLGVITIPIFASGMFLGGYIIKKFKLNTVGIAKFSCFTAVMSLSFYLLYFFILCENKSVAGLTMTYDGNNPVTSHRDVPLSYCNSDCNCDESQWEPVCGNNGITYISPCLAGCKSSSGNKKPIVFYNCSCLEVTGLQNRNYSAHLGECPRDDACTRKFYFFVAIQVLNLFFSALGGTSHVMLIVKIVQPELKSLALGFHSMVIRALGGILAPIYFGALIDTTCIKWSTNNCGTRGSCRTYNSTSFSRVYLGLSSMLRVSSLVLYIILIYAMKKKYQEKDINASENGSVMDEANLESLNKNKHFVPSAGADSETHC

[2] = target: T2, Solute carrier organic anion transporter family member 1B1 (Homo sapiens, UniProt Q9Y6L6); experiment: (§1) TP_TRANSPORTER: uptake in OATP-C-expressing HEK293 cells
T2 sequence (Q9Y6L6 whole entry): T1 sequence (Q9Y6L6 whole entry)

[3] = target: T2, Solute carrier organic anion transporter family member 1B1; experiment: TP_TRANSPORTER: inhibition of E217betaG uptake in OATP-C-expressing HEK293 cells
[4] = substrate: C[C@]12CC[C@@H]3c4ccc(O)cc4CC[C@H]3[C@@H]1CC[C@@H]2O[C@@H]1O[C@H](C(=O)O)[C@@H](O)[C@H](O)[C@H]1O; experiment: as §1

O=S(=O)(O)c1cc(N=C=S)ccc1/C=C/c1ccc(NC=S)cc1S(=O)(=O)O
activity at 50 µM [1]: 6%

C=CC1=C(C)/C(=C/c2[nH]c(Cc3[nH]c(/C=C4\NC(=O)C(C)=C4C=C)c(C)c3CCC(=O)O[C@@H]3OC(C(=O)O)[C@@H](O)C(O)C3O)c(CCC(=O)O)c2C)NC1=O (some centres undefined) [BILIRUBIN MONOGLUCURONIDE]
Activity [2]: substrate [+]

O=C1OC(c2ccc(O)c(S(=O)(=O)O)c2)(c2ccc(O)c(S(=O)(=O)O)c2)c2c(Br)c(Br)c(Br)c(Br)c21 [SULFOBROMOPHTHALEIN SODIUM]
Ki [3]: 44 nM

B1: Solute carrier organic anion transporter family member 1B1 (Homo sapiens) (protein)
chain: T1 sequence (Q9Y6L6 whole entry)
Km [4]: 8.2 µM
